Data as given in US4016193A, “Novel substituted phenylacetic acid derivatives and a process for preparing thereof” (Mitsubishi Yuka Pharmaceutical Co., Ltd., priority 1974, dated 1977).
Where two headings read alike, the source gives them in different places.

How the values were obtained:
carrageenin edema = experiment: Anti-inflammatory activity: inhibition of carrageenin edema of the rat paw, oral; assay type: in vivo, wistar male rats; details: read-out: inhibiting rate; for inhibition in vivo at 100 mg/kg: 100 mg/kg orally; for inhibition in vivo at 100 mg/kg / inhibition in vivo at 12.5 mg/kg / inhibition in vivo at 25 mg/kg / inhibition in vivo at 50 mg/kg: rats, 4 hours after carrageenin; for inhibition in vivo at 12.5 mg/kg: 12.5 mg/kg orally; for inhibition in vivo at 25 mg/kg: 25 mg/kg orally; for inhibition in vivo at 50 mg/kg: 50 mg/kg orally
Protocol: The anti-inflamatory activity is shown by inhibiting rate calculated from measurement of carrageenin edema intensity. Five wistar male rats having body weight of 120 - 180g are defined as one group and after fasted for 18 hours, the sample containing a 1% tragacanth solution such as is suspended so as to become 5 ml/kg was administered orally to the said group. Only the same volume of the 1% tragacanth solution was administered to the control group. After one hour, 0.05 ml of a 1% carrageenin (manufactured by Picnin-A, Pasco International Corp.) was injected subcutaneously to the plantar legion of right hind paw of rats. Before injection and after 4 hours of injection of carrageenin, the right hind paw volume was measured by means of paw volume measurement instrument manufactured by Ugo-Basile and an increase % of paw volume was calculated. The inhibiting rate was calculated from an increase ratio of the examined group against the central groups.

[1] = system: writhing syndrome caused by acetic acid; experiment: Analgesic activity, acetic acid writhing method, oral; assay type: in vivo, dd origin male mice; details: for ED50: Mus musculus, po, read-out: ED50 (analgesic activity); for activity ratio: ratio of ED50 values, methyl 3-nitro-4-allyloxyphenylacetate defined as 1
Protocol: (b) The analgesic activity was measured by means of acetic and writhing
10dd origin male mice weighing 17 -
25g were used as one group after 18 hours of fasting. After oral
administration of the test compounds the frequencies of writhing syndrome
caused by intraperitoneal administration of 0.1 ml/10g of a 0.6% acetic
acid were measured for 20 minutes. The frequencies of writhing syndrome
which are below 50% of those of the control group were defined as
analgesic activity (+) and the ED50 values were calculated by means of
Litchfield-Wilcoxon method. The ED50 value of methyl
3-nitro-4-allyloxyphenylacetate is defined as 1 and the activity ratios of
the test compounds were expressed as ratio of ED50 values. The test
compounds were administered as a suspension such as are adjusted to be 0.1
ml/10g in a 1% tragacanth solution. A 1% tragacanth solution was
administered to the control group.

in vivo = details: rat, po, orally, rats
[2] = orally, mice, 0.6% acetic acid i.p., Litchfield-Wilcoxon method

Structure (SMILES) | inhibition in vivo at 100 mg/kg (carrageenin edema) [%] | inhibition in vivo at 25 mg/kg (carrageenin edema) [%] | inhibition in vivo at 50 mg/kg (carrageenin edema) [%] | ED50 [1, 2] [mg/kg] | also measured
C=CCOc1ccc(C(C)C(=O)O)cc1[N+](=O)[O-] (stereo not shown) [2-(3-nitro-4-allyloxyphenyl)propionic acid] | 40.1 |  |  |  | 
C=CCOc1ccc(CC(=O)O)cc1[N+](=O)[O-] [3-Nitro-4-allyloxyphenylacetic acid] |  | 24.3 | 66.6 | 96 | inhibition in vivo at 12.5 mg/kg (carrageenin edema): 13.9%; activity ratio [1]: 0.32; LD50 (in vivo; female): 1360 mg/kg; LD50 (in vivo; male): 1480 mg/kg
C#CCOc1ccc(CC(=O)O)cc1[N+](=O)[O-] [3-Nitro-4-propargyloxyphenylacetic acid] | 40.3 |  | 28.8 |  | 
C=CCOc1ccc(CC(=O)O)cc1Cl [3-chloro-4-allyloxyphenylacetic acid] | 62 | 47 | 51.8 | 56.8 | 
C=CCOc1ccc(CC(N)=O)cc1[N+](=O)[O-] [3-nitro-4-allyloxyphenylacetamide] | 37.7 |  |  |  | 
Cc1c(N(C)C)c(=O)n(-c2ccccc2)n1C [Aminopyrine] |  |  |  | 80 | activity ratio [1]: 0.38
CC(=O)Oc1ccccc1C(=O)O [Aspirin] |  |  |  |  | ED50 [1]: 320 mg/kg; activity ratio [1]: 0.09
C=CCOc1ccc(C(C)C(=O)OCC)cc1[N+](=O)[O-] (stereo not shown) [Ethyl 2-(3-nitro-4-allyloxyphenyl)propionate] | 55.5 |  |  |  | 
COc1ccc2c(c1)c(CC(=O)O)c(C)n2C(=O)c1ccc(Cl)cc1 [Indomethacine] |  |  |  |  | inhibition in vivo at 1 mg/kg (carrageenin edema; 4 h): 39.8%; inhibition in vivo at 3 mg/kg (carrageenin edema; 4 h): 46%; inhibition in vivo at 9 mg/kg (carrageenin edema; 4 h): 60.4%
COc1cc(C)nc(-n2nc(C)cc2OC)n1 [Mepirizole] | 52.7 | 19.5 | 51.8 | 117 | activity ratio [1]: 0.26; LD50 (in vivo; female): 971 mg/kg; LD50 (in vivo; male): 1020 mg/kg
C=CCOc1ccc(C(C)C(=O)OC)cc1[N+](=O)[O-] (stereo not shown) [Methyl 2-(3-nitro-4-allyoxyphenyl)propionate] | 50.1 |  |  |  | 
C=CCOc1ccc(CC(=O)OC)cc1[N+](=O)[O-] [Methyl 3-nitro-4-allyloxyphenylacetate] |  | 72.1 |  | 31 | inhibition in vivo at 12.5 mg/kg (carrageenin edema): 51.7%; LD50 (in vivo; female): > 3000 mg/kg; LD50 (in vivo; male): > 3000 mg/kg
C#CCOc1ccc(CC(=O)OC)cc1[N+](=O)[O-] [Methyl 3-nitro-4-propargyloxyphenylacetate] | 44.9 |  |  |  | 
CCCCC1C(=O)N(c2ccccc2)N(c2ccccc2)C1=O [Phenylbutazone] |  | 49.1 | 59.4 |  | inhibition in vivo at 12.5 mg/kg (carrageenin edema): 14.1%
